Test results reported in patent publication US20240285737A1, “IMPROVED METHODS OF TREATMENT USING IMMUNOGENIC PEPTIDES” (IMCYSE SA, priority 2021, published 2024).

Tested on: proinsulin epitope C20-A1-specific CD4+ T cells
Assay: FACS quantification of CD4+ T cells responding to proinsulin epitope C20-A1 stimulation in PBMCs of T1D patients treated with IMP or placebo
Type: in vivo, human
Conditions: visits 3 to 6 (impact of administrations 3 to 6)
Method: 84 HLA DR4+ adult participants are randomly assigned (1:1:1) to one of the three treatment arms: placebo, investigational medicinal product (IMP) 450 μg and IMP 1350 μg (=the main study). All participants receive 6 administrations of IMP or placebo with a 2-week interval between each administration. At 24 weeks participants receive a boost injection. While treated participants receive a boost administration equivalent to the dose they have been randomized to, placebo participants receive a placebo boost. The participants were followed up to 48 weeks (FIG. 1).
Treatment consists of six administrations (separated by 14 days) of the IMP or the placebo by SC route. […]
Patient blood samples collected at six time points (visit V-1 or the baseline which was prior to immunization, and visits V2 to V6 which were two weeks after 2, 3, 4, 5 or 6 injections respectively) was used to quantify CD4+ T cells responding to proinsulin epitope C20-A1 stimulation. […]
Fluorescent activated cell sorting (FACS) analysis was performed to quantify CD4+ T cells that respond to proinsulin epitope stimulation. […] In a proinsulin epitope C20-A1-stimulated sample, the “net % of responding CD4+ T cells” was calculated as the % of CD4+ T cells with an effector or regulatory phenotype in the stimulated sample minus the % of CD4+ T cells with effector or regulatory phenotype in the corresponding unstimulated sample. […]

For HCPYCSLQPLALEGSLQKRG [IMP], the “net % of responding CD4+ T cells in IMP treated as compared to Placebo treated patients at individual time points” value was “trend of greater net % of responding CD4+ T cells”.
